Laboratory results: patent publication US7534785B2, “3,6-dihydro-2-oxo-6H-1,3,4,-thiadiazine derivatives” (Merck Patent Gesellschaft, priority 2005, dated 2009)

Target: T1, Met kinase (Homo sapiens, UniProt P08581)
T1 construct: 6His (N); purchased Upstate 14-526; host or cells: Sf21 insect cells (S. frugiperda), baculovirus
Assay: Met kinase inhibition, flashplate method
Format: biochemical
Settings: 1 μM ATP, substrate pAGLT, 3 hrs at room temperature, read-out: IC50 (enzyme)
Excerpt: According to the manufacturer's data (Met, active, upstate, catalogue No. 14-526), Met kinase is expressed for the purposes of protein production in insect cells (Sf21; S. frugiperda) and subsequent affinity-chromatographic purification as “N-terminal 6His-tagged” recombinant human protein in a baculovirus expression vector.
The test plates used are 96-well Flashplate® microtitre plates from Perkin Elmer (Cat. No. SMP200). The components of the kinase reaction described below are pipetted into the assay plate. The Met kinase and the substrate poly Ala-Glu-Lys-Tyr, (pAGLT, 6:2:5:1), are incubated for 3 hrs at room temperature with radioactively labelled ^33P-ATP in the presence and absence of test substances in a total volume of 100 μl. The reaction is terminated using 150 μl of a 60 mM EDTA solution. After incubation for a further 30 min at room temperature, the supernatants are filtered off with suction, and the wells are washed three times with 200 μl of 0.9% NaCl solution each time. The measurement of the bound radioactivity is carried out by means of a scintillation measuring instrument (Topcount NXT, Perkin-Elmer).
The full value used is the inhibitor-free kinase reaction. This should be approximately in the range 6000-9000 cpm. The pharmacological zero value used is staurosporin in a final concentration of 0.1 mM. The inhibitory values (IC50) are determined using the RS1_MTS program.
Kinase Reaction Conditions per Well: • 30 μl of assay buffer • 10 μl of substance to be tested in assay buffer with 10% of DMSO • 10 μl of ATP (final concentration 1 μM cold, 0.35 μCi of ^33P-ATP) • 50 μl of Met kinase/substrate mixture in assay buffer; • (10 ng of enzyme/well, 50 ng of pAGLT/well)
Solutions Used: • Assay Buffer: • 50 mM HEPES • 3 mM magnesium chloride • 3 μM sodium orthovanadate • 3 mM manganese(II) chloride • 1 mM dithiothreitol (DTT) • pH=7.5 (to be set using sodium hydroxide) • Stop Solution: • 60 mM Titriplex III (EDTA) • ^33P-ATP: Perkin-Elmer; • Met kinase: Upstate, Cat. No. 14-526, Stock 1 μg/10 μl; spec. activity 954 U/mg; • Poly-Ala-Glu-Lys-Tyr, 6:2:5:1:Sigma Cat. No. P1152

T1 sequence (P08581 25-1390): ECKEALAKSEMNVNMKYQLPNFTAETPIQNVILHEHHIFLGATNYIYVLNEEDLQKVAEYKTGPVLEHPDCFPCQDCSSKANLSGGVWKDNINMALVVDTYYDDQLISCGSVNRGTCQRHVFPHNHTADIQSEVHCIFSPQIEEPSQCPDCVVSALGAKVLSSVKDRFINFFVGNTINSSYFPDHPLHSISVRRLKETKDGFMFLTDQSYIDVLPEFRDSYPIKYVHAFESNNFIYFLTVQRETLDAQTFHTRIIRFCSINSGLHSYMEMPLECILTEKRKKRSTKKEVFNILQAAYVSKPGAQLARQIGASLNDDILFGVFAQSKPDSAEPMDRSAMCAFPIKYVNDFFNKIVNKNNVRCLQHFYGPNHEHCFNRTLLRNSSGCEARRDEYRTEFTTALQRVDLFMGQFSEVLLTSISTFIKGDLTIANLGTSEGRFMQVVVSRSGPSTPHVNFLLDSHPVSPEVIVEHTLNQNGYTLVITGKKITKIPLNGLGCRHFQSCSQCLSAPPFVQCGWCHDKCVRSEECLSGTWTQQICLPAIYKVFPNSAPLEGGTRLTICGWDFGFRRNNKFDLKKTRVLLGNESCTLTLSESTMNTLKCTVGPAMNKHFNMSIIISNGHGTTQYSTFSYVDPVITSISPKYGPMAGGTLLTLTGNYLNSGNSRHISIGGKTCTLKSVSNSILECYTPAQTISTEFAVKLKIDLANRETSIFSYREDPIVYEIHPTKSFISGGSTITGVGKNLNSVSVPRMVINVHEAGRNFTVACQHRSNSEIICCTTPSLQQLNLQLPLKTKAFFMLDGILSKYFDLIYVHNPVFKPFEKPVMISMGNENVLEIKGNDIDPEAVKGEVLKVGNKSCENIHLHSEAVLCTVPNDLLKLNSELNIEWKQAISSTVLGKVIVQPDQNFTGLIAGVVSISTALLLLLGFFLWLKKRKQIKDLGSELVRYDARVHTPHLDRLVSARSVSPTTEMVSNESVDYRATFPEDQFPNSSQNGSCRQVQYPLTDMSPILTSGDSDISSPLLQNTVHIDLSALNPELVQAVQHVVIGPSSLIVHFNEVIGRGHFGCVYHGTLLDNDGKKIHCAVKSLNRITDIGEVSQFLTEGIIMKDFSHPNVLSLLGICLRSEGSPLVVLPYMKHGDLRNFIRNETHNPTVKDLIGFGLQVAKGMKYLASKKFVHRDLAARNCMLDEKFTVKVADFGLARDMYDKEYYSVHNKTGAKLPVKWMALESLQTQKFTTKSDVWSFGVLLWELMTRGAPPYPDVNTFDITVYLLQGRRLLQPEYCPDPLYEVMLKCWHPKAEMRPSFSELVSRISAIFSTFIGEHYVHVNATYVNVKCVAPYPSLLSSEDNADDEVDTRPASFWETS

IC50, 10 to 1000 nM:
CCNC(=O)Nc1cccc(CN2N=C(c3cc(Cl)ccc3O)CSC2=O)c1 [Compound A2]
C[C@H](O)CNC(=O)Nc1cccc(CN2N=C(c3ccc(Cl)cc3)CSC2=O)c1 [Compound A4]
O=C(NCCO)Nc1cccc(CN2N=C(c3ccc(Cl)cc3)CSC2=O)c1 [Compound A5]
CN1CCC(CNC(=O)Nc2cccc(CN3N=C(c4ccc(Cl)cc4)CSC3=O)c2)C1 (centres unmarked) [Compound A1, 1-{3-[5-(4-chlorophenyl)-2-oxo-6H-1,3,4-thiadiazin-3-ylmethyl]phenyl}-3-(1-methylpyrrolidin-3-ylmethyl)urea]
CCN(CC)CCCNC(=O)Nc1cccc(CN2N=C(c3ccc(Cl)cc3)CSC2=O)c1 [Compound A3]
CN(C)C(=O)Nc1cccc(CN2N=C(c3cc(Cl)ccc3O)CSC2=O)c1 [Compound A12]
CCOC(=O)C(=O)Nc1cccc(CN2N=C(c3ccc(Cl)cc3)CSC2=O)c1 [Compound A9, ethyl N-{3-[5-(4-chlorophenyl)-2-oxo-6H-1,3,4-thiadiazin-3-ylmethyl]phenyl}oxalaminate]
CNCCNC(=O)Nc1cccc(CN2N=C(c3ccc(C#N)cc3)CSC2=O)c1 [Compound A10]
